Measured values from US9216999B2, “Substituted pyrrolo[2,3-h][1,6]naphthyridines and compositions thereof as JAK inhibitors” (priority 2011, dated 2015).
Where two headings read alike, the source gives them in different places.

Legend:
Format in all cases: biochemical
JAK1 = JAK1 (Homo sapiens (Human), UniProt P23458); assay: Enzyme assay (Assay Example^a 1), JAK1; conditions: ATP 100 μM
JAK3 = JAK3 (Homo sapiens (Human), UniProt P52333); assay: Enzyme assay (Assay Example^a 1), JAK3
Tyk2 = Tyk2 (Homo sapiens (Human), UniProt P29597); assay: Enzyme assay (Assay Example^a 1), Tyk2; conditions: ATP 100 μM
JAK2 = JAK2 (Homo sapiens (Human), UniProt O60674); assay: Enzyme assay (Assay Example^a 1), JAK2; conditions: ATP 100 μM

Sequence of Tyk2 (P29597 whole entry): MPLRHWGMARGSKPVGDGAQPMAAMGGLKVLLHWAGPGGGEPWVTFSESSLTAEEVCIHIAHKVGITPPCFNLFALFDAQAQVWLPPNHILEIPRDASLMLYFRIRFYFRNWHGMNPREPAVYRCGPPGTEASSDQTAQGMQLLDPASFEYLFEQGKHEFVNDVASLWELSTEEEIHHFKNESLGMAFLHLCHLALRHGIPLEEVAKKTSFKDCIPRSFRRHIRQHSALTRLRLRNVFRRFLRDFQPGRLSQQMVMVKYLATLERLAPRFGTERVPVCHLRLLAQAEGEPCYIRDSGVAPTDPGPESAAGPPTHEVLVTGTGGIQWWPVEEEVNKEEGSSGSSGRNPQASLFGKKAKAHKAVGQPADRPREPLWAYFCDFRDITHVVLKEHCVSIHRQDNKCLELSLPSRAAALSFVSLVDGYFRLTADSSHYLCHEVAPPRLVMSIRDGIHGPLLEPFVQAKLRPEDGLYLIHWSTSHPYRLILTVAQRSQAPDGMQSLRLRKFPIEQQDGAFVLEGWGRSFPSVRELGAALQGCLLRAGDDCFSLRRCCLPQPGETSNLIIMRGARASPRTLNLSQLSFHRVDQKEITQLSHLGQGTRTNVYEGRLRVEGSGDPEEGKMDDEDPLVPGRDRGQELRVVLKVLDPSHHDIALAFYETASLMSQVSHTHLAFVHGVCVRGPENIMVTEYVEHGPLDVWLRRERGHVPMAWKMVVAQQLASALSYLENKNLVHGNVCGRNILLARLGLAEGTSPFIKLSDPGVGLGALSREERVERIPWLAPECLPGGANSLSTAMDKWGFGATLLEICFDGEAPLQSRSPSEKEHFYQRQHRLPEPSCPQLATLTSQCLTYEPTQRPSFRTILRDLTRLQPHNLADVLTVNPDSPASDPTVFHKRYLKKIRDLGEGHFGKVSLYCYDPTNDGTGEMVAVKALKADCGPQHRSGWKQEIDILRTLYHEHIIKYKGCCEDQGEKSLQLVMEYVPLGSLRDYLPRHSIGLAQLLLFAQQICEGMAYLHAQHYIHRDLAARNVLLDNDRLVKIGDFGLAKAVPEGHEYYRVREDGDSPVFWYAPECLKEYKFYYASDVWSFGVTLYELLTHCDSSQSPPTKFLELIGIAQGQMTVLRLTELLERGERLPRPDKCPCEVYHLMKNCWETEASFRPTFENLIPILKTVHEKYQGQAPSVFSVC
Sequence of JAK3 (P52333 whole entry): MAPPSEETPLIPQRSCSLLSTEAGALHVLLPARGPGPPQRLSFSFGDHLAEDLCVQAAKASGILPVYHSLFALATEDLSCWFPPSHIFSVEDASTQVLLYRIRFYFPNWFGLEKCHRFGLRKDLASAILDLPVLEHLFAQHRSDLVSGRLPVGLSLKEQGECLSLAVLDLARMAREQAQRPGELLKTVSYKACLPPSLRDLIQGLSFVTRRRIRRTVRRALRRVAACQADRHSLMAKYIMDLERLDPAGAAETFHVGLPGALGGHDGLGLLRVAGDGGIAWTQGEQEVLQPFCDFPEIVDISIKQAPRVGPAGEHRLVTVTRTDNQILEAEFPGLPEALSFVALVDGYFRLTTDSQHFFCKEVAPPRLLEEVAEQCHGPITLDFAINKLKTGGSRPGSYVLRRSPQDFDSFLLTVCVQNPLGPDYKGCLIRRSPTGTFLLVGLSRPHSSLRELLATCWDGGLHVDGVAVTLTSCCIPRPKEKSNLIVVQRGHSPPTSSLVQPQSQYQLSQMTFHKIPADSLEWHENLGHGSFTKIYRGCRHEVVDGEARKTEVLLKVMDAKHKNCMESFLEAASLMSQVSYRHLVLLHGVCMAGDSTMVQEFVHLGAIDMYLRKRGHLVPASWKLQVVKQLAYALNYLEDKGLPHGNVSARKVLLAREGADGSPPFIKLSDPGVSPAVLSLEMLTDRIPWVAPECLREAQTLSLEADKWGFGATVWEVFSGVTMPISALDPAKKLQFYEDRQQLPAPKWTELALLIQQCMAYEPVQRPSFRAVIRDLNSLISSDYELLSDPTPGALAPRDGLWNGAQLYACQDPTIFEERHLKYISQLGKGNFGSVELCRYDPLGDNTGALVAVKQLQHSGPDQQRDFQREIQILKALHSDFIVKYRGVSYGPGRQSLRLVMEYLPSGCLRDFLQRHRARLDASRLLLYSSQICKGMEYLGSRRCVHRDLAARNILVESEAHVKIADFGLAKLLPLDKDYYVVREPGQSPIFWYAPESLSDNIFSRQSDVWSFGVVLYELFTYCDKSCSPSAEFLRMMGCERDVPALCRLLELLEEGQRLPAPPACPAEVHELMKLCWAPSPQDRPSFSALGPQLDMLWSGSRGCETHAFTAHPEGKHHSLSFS

Row | Compound | IC50 (JAK1) | IC50 (JAK3; ATP 100 μM) | IC50 (Tyk2) | IC50 (JAK2) | IC50 (JAK3) | IC50 (JAK1; Table^a 154) | IC50 (JAK3; ATP 100 μM, Table^a 154) | IC50 (Tyk2; Table^a 154) | IC50 (JAK2; Table^a 154)
1 | c1cc2c(ncn3nnc([C@H]4CC[C@H](NC5CC5)CC4)c23)[nH]1 [392b, trans-N-cyclopropyl-4-(7H-pyrrolo[3,2-e][1,2,3]triazolo[1,5-c]pyrimidin-1-yl)cyclohexanamine] | 0.014 µM | 0.61 µM | 0.33 µM | 0.08 µM | – | – | – | – | –
2 | O=C(NCC(O)(c1ccccc1)C(F)(F)F)[C@H]1CC[C@H](c2nnn3cnc4[nH]ccc4c23)CC1 (stereo partly drawn) [compound 346, trans-4-(7H-Pyrrolo[3,2-e][1,2,3]triazolo[1,5-c]pyrimidin-1-yl)-N-(3,3,3-trifluoro-2-hydroxy-2-phenylpropyl)cyclohexanecarboxamide] | 0.0051 µM | > 1 µM | > 1 µM | 0.06 µM | – | – | – | – | –
3 | N#CC(C#N)=C[C@H]1CC[C@H](c2nnn3cnc4[nH]ccc4c23)CC1 [compound 431, 2-{[trans-4-(7H-Pyrrolo[3,2-e][1,2,3]triazolo[1,5-c]pyrimidin-1-yl)cyclohexyl]methylene}malononitrile] | 0.0048 µM | 0.29 µM | 0.24 µM | 0.013 µM | – | – | – | – | –
4 | O=S(=O)(O)C[C@H]1CC[C@H](c2nnn3cnc4[nH]ccc4c23)CC1 [compound 416, [trans-4-(7H-Pyrrolo[3,2-e][1,2,3]triazolo[1,5-c]pyrimidin-1-yl)cyclohexyl]methanesulfonic acid] | 0.029 µM | > 1 µM | 0.68 µM | 0.047 µM | – | – | – | – | –
5 | N#CCNC(=O)[C@H]1CC[C@H](c2nnn3cnc4[nH]ccc4c23)CC1 [compound 355, trans-N-(cyanomethyl)-4-(7H-pyrrolo[3,2-e][1,2,3]triazolo[1,5-c]pyrimidin-1-yl)cyclohexanecarboxamide] | 0.0042 µM | > 1 µM | 0.15 µM | 0.033 µM | – | – | – | – | –
6 | c1cc2c(ncn3nnc([C@H]4CC[C@H](CNC5CC5)CC4)c23)[nH]1 [compound 280, N-{[trans-4-(7H-pyrrolo[3,2-e][1,2,3]triazolo[1,5-c]pyrimidin-1-yl)cyclohexyl]methyl}cyclopropanamine] | 0.0019 µM | 0.68 µM | 0.1 µM | 0.062 µM | – | – | – | – | –
7 | Brc1cc(CN2CCC(c3nnn4cnc5[nH]ccc5c34)CC2)sc1Br [compound 233, 1-{1-[(4,5-dibromothiophen-2-yl)methyl]piperidin-4-yl}-7H-pyrrolo[3,2-e][1,2,3]triazolo[1,5-c]pyrimidine] | 0.021 µM | – | > 1 µM | 0.071 µM | > 1 µM | – | – | – | –
8 | N#CC=C1CCC(c2nnn3cnc4[nH]ccc4c23)CC1 (stereo not shown) [compound 434, 2-[4-(7H-pyrrolo[3,2-e][1,2,3]triazolo[1,5-c]pyrimidin-1-yl)cyclohexylidene]acetonitrile] | 0.0023 µM | 0.49 µM | 0.034 µM | 0.014 µM | – | – | – | – | –
9 | OCC1(NC[C@H]2CC[C@H](c3nnn4cnc5[nH]ccc5c34)CC2)CC1 [compound 327, [1-({[trans-4-(7H-pyrrolo[3,2-e][1,2,3]triazolo[1,5-c]pyrimidin-1-yl)cyclohexyl]methyl}amino)cyclopropyl]methanol] | 0.007 µM | 0.79 µM | 0.55 µM | 0.054 µM | – | – | – | – | –
10 | Clc1ccc(C2(NC[C@H]3CC[C@H](c4nnn5cnc6[nH]ccc6c45)CC3)COC2)cc1 [compound 308, N-{[trans-4-(7H-pyrrolo[3,2-e][1,2,3]triazolo[1,5-c]pyrimidin-1-yl)cyclohexyl]methyl}-3-(4-chlorophenyl)oxetan-3-amine] | 0.0024 µM | 0.24 µM | 0.79 µM | 0.012 µM | – | – | – | – | –
11 | C(=C\c1ccco1)/CN1CCC(c2nnn3cnc4[nH]ccc4c23)CC1 [compound 215, (E)-1-{1-[3-(furan-2-yl)allyl]piperidin-4-yl}-7H-pyrrolo[3,2-e][1,2,3]triazolo[1,5-c]pyrimidine] | 0.026 µM | > 1 µM | > 1 µM | 0.25 µM | – | – | – | – | –
12 | O=C(CC(F)(F)F)NC[C@H]1CC[C@H](c2nnn3cnc4[nH]ccc4c23)CC1 [compound 373, N-{[trans-4-(7H-Pyrrolo[3,2-e][1,2,3]triazolo[1,5-c]pyrimidin-1-yl)cyclohexyl]methyl}-3,3,3-trifluoropropanamide] | 0.0015 µM | 0.035 µM | 0.53 µM | 0.011 µM | – | – | – | – | –
13 | c1cc2c(ncn3nnc(C4CCN(Cc5cscn5)CC4)c23)[nH]1 [compound 240, 4-{[4-(7H-pyrrolo[3,2-e][1,2,3]triazolo[1,5-c]pyrimidin-1-yl)piperidin-1-yl]methyl}thiazole] | 0.039 µM | 0.6 µM | > 1 µM | 0.11 µM | – | – | – | – | –
14 | Fc1ccc(CN2CCC(c3nnn4cnc5[nH]ccc5c34)CC2)c(Cl)c1 [compound 165, 1-[1-(2-chloro-4-fluorobenzyl)piperidin-4-yl]-7H-pyrrolo[3,2-e][1,2,3]triazolo[1,5-c]pyrimidine] | – | – | – | – | – | 0.0044 µM | 0.1 µM | 0.34 µM | 0.02 µM
15 | N#Cc1ccc(CN2CCC(c3nnn4cnc5[nH]ccc5c34)CC2)cc1F [compound 222, 4-{[4-(7H-pyrrolo[3,2-e][1,2,3]triazolo[1,5-c]pyrimidin-1-yl)piperidin-1-yl]methyl}-2-fluorobenzonitrile] | 0.0035 µM | 0.32 µM | 0.77 µM | 0.033 µM | – | – | – | – | –
16 | OC1CN(C[C@H]2CC[C@H](c3nnn4cnc5[nH]ccc5c34)CC2)C1 [compound 257, 1-{[trans-4-(7H-pyrrolo[3,2-e][1,2,3]triazolo[1,5-c]pyrimidin-1-yl)cyclohexyl]methyl}azetidin-3-ol] | 0.0017 µM | 0.49 µM | 0.049 µM | 0.016 µM | – | – | – | – | –
17 | CNC[C@H]1CC[C@H](c2nnn3cnc4[nH]ccc4c23)CC1 [compound 329, 1-[trans-4-(7H-pyrrolo[3,2-e][1,2,3]triazolo[1,5-c]pyrimidin-1-yl)cyclohexyl]-N-methylmethanamine] | 0.0048 µM | 0.8 µM | 0.21 µM | 0.029 µM | – | – | – | – | –
18 | N#C[C@H]1CCN(C[C@H]2CC[C@H](c3nnn4cnc5[nH]ccc5c34)CC2)C1 [compound 187, (S)-1-{[trans-4-(7H-pyrrolo[3,2-e][1,2,3]triazolo[1,5-c]pyrimidin-1-yl)cyclohexyl]methyl}pyrrolidine-3-carbonitrile] | – | – | – | – | – | 0.0076 µM | 0.37 µM | 0.36 µM | 0.038 µM
19 | CC1CCCCC1c1nnn2cnc3[nH]ccc3c12 (stereo not shown) [compound 7] | 0.0042 µM | – | 0.056 µM | 0.012 µM | 0.055 µM | – | – | – | –
20 | CC(C)(C)OC(=O)N1CC(CC#N)(NC[C@H]2CC[C@H](c3nnn4cnc5[nH]ccc5c34)CC2)C1 [compound 428, tert-Butyl 3-({[trans-4-(7H-pyrrolo[3,2-e][1,2,3]triazolo[1,5-c]pyrimidin-1-yl)cyclohexyl]methyl}amino)-3-(cyanomethyl)azetidine-1-carboxylate] | 0.19 µM | > 1 µM | > 1 µM | 0.75 µM | – | – | – | – | –
21 | O=C1OCCC1NC[C@H]1CC[C@H](c2nnn3cnc4[nH]ccc4c23)CC1 (stereo partly drawn) [compound 279, 3-({[trans-4-(7H-pyrrolo[3,2-e][1,2,3]triazolo[1,5-c]pyrimidin-1-yl)cyclohexyl]methyl}amino)dihydrofuran-2(3H)-one] | 0.0074 µM | 0.53 µM | 0.2 µM | 0.044 µM | – | – | – | – | –
22 | O=S(=O)(c1ccc(NC[C@H]2CC[C@H](c3nnn4cnc5[nH]ccc5c34)CC2)cc1)C(F)(F)F [compound 173, N-{[trans-4-(7H-pyrrolo[3,2-e][1,2,3]triazolo[1,5-c]pyrimidin-1-yl)cyclohexyl]methyl}-4-[(trifluoromethyl)sulfonyl]aniline] | – | – | – | – | – | 0.034 µM | > 1 µM | 0.46 µM | 0.26 µM
23 | O[C@@H]1Cc2ccccc2[C@@H]1NC1CCC(c2nnn3cnc4[nH]ccc4c23)CC1 (mixture of isomers) [compound 379, (1S,2R)-1-{[4-(7H-pyrrolo[3,2-e][1,2,3]triazolo[1,5-c]pyrimidin-1-yl)cyclohexyl]amino}-2,3-dihydro-1H-inden-2-ol] | 0.013 µM | 0.66 µM | 0.29 µM | 0.11 µM | – | – | – | – | –
24 | CC(C#N)[C@H]1CC[C@@H](c2nnn3cnc4[nH]ccc4c23)CC1 (stereo partly drawn) [439a, 2-[cis-4-(7H-Pyrrolo[3,2-e][1,2,3]triazolo[1,5-c]pyrimidin-1-yl)cyclohexyl]propanenitrile] | 0.13 µM | > 1 µM | > 1 µM | 0.34 µM | – | – | – | – | –
25 | N#CC1(c2ccccc2)CCN(C[C@H]2CC[C@H](c3nnn4cnc5[nH]ccc5c34)CC2)CC1 [compound 310, 1-{[trans-4-(7H-pyrrolo[3,2-e][1,2,3]triazolo[1,5-c]pyrimidin-1-yl)cyclohexyl]methyl}-4-phenylpiperidine-4-carbonitrile] | 0.071 µM | > 1 µM | > 1 µM | 0.38 µM | – | – | – | – | –
26 | OCCN1CCN(C[C@H]2CC[C@H](c3nnn4cnc5[nH]ccc5c34)CC2)CC1 [compound 315, 2-(4-{[trans-4-(7H-pyrrolo[3,2-e][1,2,3]triazolo[1,5-c]pyrimidin-1-yl)cyclohexyl]methyl}piperazin-1-yl)ethanol] | 0.01 µM | > 1 µM | 0.53 µM | 0.2 µM | – | – | – | – | –
27 | OC12CC3CC(C1)CC(c1nnn4cnc5[nH]ccc5c14)(C3)C2 [compound 445, 3-(7H-Pyrrolo[3,2-e][1,2,3]triazolo[1,5-c]pyrimidin-1-yl)adamantan-1-ol] | 0.031 µM | 0.22 µM | 0.052 µM | 0.13 µM | – | – | – | – | –
28 | Fc1ccc(CN2CCC(c3nnn4cnc5[nH]ccc5c34)CC2)cc1F [compound 166, 1-[1-(3,4-difluorobenzyl)piperidin-4-yl]-7H-pyrrolo[3,2-e][1,2,3]triazolo[1,5-c]pyrimidine] | – | – | – | – | – | 0.0053 µM | 0.17 µM | 0.49 µM | 0.023 µM
